Where “and” joins values, the source holds several entries; their conditions need not be identical. Equal values may be shown once. Inconclusive results and toxic doses are left out.

The subject of the assay is P388 leukemia ip, CD2F1 mice, survival T/C. As to the kind of experiment: NCI In Vivo Anticancer Drug Screen. Data for tumor model P388 Leukemia (intraperitoneal) in CD2F1 (CDF1) mice. The note with it: endpoint: median survival time, higher = longer survival. The gist of the method: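 Mice carrying the transplanted tumor received test compound or vehicle. Survival was recorded in each group, and the value is the treated-group measurement divided by that of the vehicle-treated control group.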

Where [1] appears, read: dose: 50.0 mg/kg/injection, schedule: Q01DX009 (ip), vehicle: saline with Tween-80.
Where [2] appears, read: dose: 100.0 mg/kg/injection, schedule: Q01DX009 (ip), vehicle: saline with Tween-80.
Where [3] appears, read: dose: 200.0 mg/kg/injection, schedule: Q01DX009 (ip), vehicle: saline with Tween-80.
[4] abbreviates: dose: 400.0 mg/kg/injection, schedule: Q01DX009 (ip), vehicle: saline with Tween-80.
Setting [5] is: dose: 25.0 mg/kg/injection, schedule: Q01DX009 (ip), vehicle: saline with Tween-80.
Where [6] appears, read: dose: 100.0 mg/kg/injection, schedule: Q04DX003 (ip), vehicle: saline with Tween-80.
Setting [7] is: dose: 200.0 mg/kg/injection, schedule: Q04DX003 (ip), vehicle: saline with Tween-80.
Setting [8] is: dose: 400.0 mg/kg/injection, schedule: Q04DX003 (ip), vehicle: saline with Tween-80.
Where [9] appears, read: dose: 25.0 mg/kg/injection, schedule: Q01DX009 (ip), vehicle: saline.
Where [10] appears, read: dose: 50.0 mg/kg/injection, schedule: Q01DX009 (ip), vehicle: saline.
Where [11] appears, read: dose: 100.0 mg/kg/injection, schedule: Q01DX009 (ip), vehicle: saline.

With `c1ccc([Se][Se]c2ccccn2)nc1`, the T/C runs as follows: (dose: 6.25 mg/kg/injection, schedule: Q01DX005 (ip), vehicle: Klucel (hydroxypropylcellulose) (HPC)) 101 % of control; (dose: 12.5 mg/kg/injection, schedule: Q01DX005 (ip), vehicle: Klucel (hydroxypropylcellulose) (HPC)) 103 % of control; (dose: 25.0 mg/kg/injection, schedule: Q01DX005 (ip), vehicle: Klucel (hydroxypropylcellulose) (HPC)) 101 % of control.
Take `O=C1OC(c2c[nH]c3ccccc3c2=O)c2ccccc21` (stereo unspecified): the T/C by setting is: (dose: 60.0 mg/kg/injection, schedule: Q01DX005 (ip), vehicle: saline with Tween-80) 103 % of control; (dose: 120.0 mg/kg/injection, schedule: Q01DX005 (ip), vehicle: saline with Tween-80) 95 % of control; (dose: 240.0 mg/kg/injection, schedule: Q01DX005 (ip), vehicle: saline with Tween-80) 88 % of control.
With `O=c1nc(-c2ccccc2)c(-c2ccccc2)n[nH]1`, the T/C under setting [1] is 100 % of control, the T/C under setting [2] was 100 % of control and the T/C under setting [3] was 100 % of control.
In the case of `COc1ccc(CSC2=C(C#N)C(=O)NC3(CCCCC3)S2)cc1`, the T/C is 112 % of control under setting [1], 95 % of control under setting [2] and 97 % of control under setting [3].
Take `CN[C@H]1CCc2cc(OC)c(OC)c(OC)c2-c2ccc(OC)c(=O)cc21`: the T/C runs as follows: (dose: 0.5 mg/kg/injection, schedule: Q01DX009 (ip), vehicle: saline) 109 % of control; (dose: 0.5 mg/kg/injection, schedule: Q01DX009 (ip), vehicle: water) 109 % of control; (dose: 0.63 mg/kg/injection, schedule: Q01DX009 (ip), vehicle: water) 112 % of control; (dose: 1.0 mg/kg/injection, schedule: Q01DX009 (ip), vehicle: saline with Tween-80) 117 % of control; (dose: 1.0 mg/kg/injection, schedule: Q01DX009 (ip), vehicle: saline) 104 % of control and 124 % of control; (dose: 2.0 mg/kg/injection, schedule: Q01DX009 (ip), vehicle: saline with Tween-80) 98 % of control. Moreover, the T/C (dose: 2.0 mg/kg/injection, schedule: Q01DX009 (ip), vehicle: saline) is 104 % of control and 121 % of control; the T/C (dose: 4.0 mg/kg/injection, schedule: Q01DX009 (ip), vehicle: saline with Tween-80) is 95 % of control; the T/C (dose: 4.0 mg/kg/injection, schedule: Q01DX009 (ip), vehicle: saline) was 104 % of control; the T/C (dose: 4.0 mg/kg/injection, schedule: Q04DX003 (ip), vehicle: saline with Tween-80) is 103 % of control; the T/C (dose: 5.0 mg/kg/injection, schedule: Q01DX009 (ip), vehicle: water) was 117 % of control; the T/C (dose: 8.0 mg/kg/injection, schedule: Q01DX009 (ip), vehicle: saline) is 121 % of control. For the same compound, the T/C is, setting by setting: (dose: 8.0 mg/kg/injection, schedule: Q01DX009 (ip), vehicle: water) 152 % of control; (dose: 8.0 mg/kg/injection, schedule: Q04DX003 (ip), vehicle: saline with Tween-80) 101 % of control; (dose: 10.0 mg/kg/injection, schedule: Q01DX009 (ip), vehicle: water) 155 % of control; (dose: 16.0 mg/kg/injection, schedule: Q04DX003 (ip), vehicle: saline with Tween-80) 102 % of control; (dose: 32.0 mg/kg/injection, schedule: Q04DX003 (ip), vehicle: saline with Tween-80) 102 % of control.
Turning to `O=Cc1c[nH]c2ccc(NC(=O)OCc3ccccc3)cc12`, the T/C is, setting by setting: under setting [1], 103 % of control; under setting [2], 89 % of control; under setting [4], 86 % of control.
In the case of `c1ccc(C2CN3CCSC3=N2)cc1` (stereo unspecified), the T/C is 98 % of control (dose: 3.13 mg/kg/injection, schedule: Q01DX009 (ip), vehicle: saline with Tween-80); 101 % of control (dose: 3.75 mg/kg/injection, schedule: Q01DX005 (ip), vehicle: saline); 100 % of control (dose: 6.25 mg/kg/injection, schedule: Q01DX009 (ip), vehicle: saline with Tween-80); 100 % of control (dose: 7.5 mg/kg/injection, schedule: Q01DX005 (ip), vehicle: saline); 98 % of control (dose: 12.5 mg/kg/injection, schedule: Q01DX009 (ip), vehicle: saline with Tween-80); 99 % of control (dose: 15.0 mg/kg/injection, schedule: Q01DX005 (ip), vehicle: saline). The T/C under setting [5] is 103 % of control.
Turning to `CC(=O)Nc1ccc2oc3ccc(Cl)cc3c(=O)c2c1`, the T/C was 98 % of control (dose: 50.0 mg/kg/injection, schedule: Q01DX005 (ip), vehicle: Klucel (hydroxypropylcellulose) (HPC)); 92 % of control (dose: 100.0 mg/kg/injection, schedule: Q01DX005 (ip), vehicle: Klucel (hydroxypropylcellulose) (HPC)); 91 % of control (dose: 200.0 mg/kg/injection, schedule: Q01DX005 (ip), vehicle: Klucel (hydroxypropylcellulose) (HPC)).
In the case of `CCC(c1ccccc1)C(C#N)c1ccccc1` (stereo unspecified), the T/C is, setting by setting: under setting [5], 95 % of control; under setting [1], 95 % of control; under setting [2], 94 % of control; under setting [3], 90 % of control.
With `O=S(CF)c1ccc(Cl)cc1` (stereo unspecified), the T/C is 93 % of control under setting [6], 102 % of control under setting [7] and 107 % of control under setting [8].
On to `O=C1c2ccccc2C(=O)N1CNc1cccc(NCN2C(=O)c3ccccc3C2=O)c1`, for which the T/C by setting is: under setting [2], 110 % of control; under setting [3], 95 % of control; under setting [4], 100 % of control.
Regarding `CC12OC3(C)c4ccccc4OP3(c3ccccc3)(Oc3ccccc31)O2` (stereo unspecified), the T/C was 99 % of control under setting [1], 97 % of control under setting [2] and 88 % of control under setting [3].
For the compound `Cc1nc2c([N+](=O)[O-])cc(Cl)cc2[nH]1`, the T/C is, setting by setting: (dose: 30.0 mg/kg/injection, schedule: Q01DX005 (ip), vehicle: Klucel (hydroxypropylcellulose) (HPC)) 107 % of control; (dose: 60.0 mg/kg/injection, schedule: Q01DX005 (ip), vehicle: Klucel (hydroxypropylcellulose) (HPC)) 107 % of control; (dose: 120.0 mg/kg/injection, schedule: Q01DX005 (ip), vehicle: Klucel (hydroxypropylcellulose) (HPC)) 103 % of control.
Consider `N#CC1(C#N)C2C=CC(C3CCC=C32)C1(C#N)C#N` (stereo unspecified), for which the T/C by setting is: (dose: 6.25 mg/kg/injection, schedule: Q01DX009 (ip), vehicle: Klucel (hydroxypropylcellulose) (HPC)) 100 % of control; (dose: 12.5 mg/kg/injection, schedule: Q01DX009 (ip), vehicle: Klucel (hydroxypropylcellulose) (HPC)) 110 % of control; (dose: 25.0 mg/kg/injection, schedule: Q01DX009 (ip), vehicle: Klucel (hydroxypropylcellulose) (HPC)) 106 % of control.
On to `O=C1CN(c2cccc(Cl)c2)C(=O)CN1/N=C/c1ccco1`, for which the T/C (dose: 50.0 mg/kg/injection, schedule: Q01DX005 (ip), vehicle: saline with Tween-80) is 109 % of control; the T/C (dose: 100.0 mg/kg/injection, schedule: Q01DX005 (ip), vehicle: saline with Tween-80) is 107 % of control; the T/C (dose: 200.0 mg/kg/injection, schedule: Q01DX005 (ip), vehicle: saline with Tween-80) was 98 % of control.
With `CC(=O)Nc1ccc(S(N)(=O)=O)cc1`, the T/C under setting [9] is 96 % of control; the T/C under setting [10] is 95 % of control; the T/C under setting [11] was 96 % of control; the T/C (dose: 200.0 mg/kg/injection, schedule: Q01DX009 (ip), vehicle: saline) is 102 % of control.
Turning to `CC(C)(C)N=C(CCNc1ccccc1Cl)Nc1ccccc1Cl`, the T/C was 103 % of control under setting [1], 103 % of control under setting [2] and 86 % of control under setting [3].
For the compound `CCC1=Cc2cc([N+](=O)[O-])cc(OC)c2OC12SCCN2C` (stereo unspecified), the T/C runs as follows: under setting [6], 100 % of control; under setting [7], 103 % of control; under setting [8], 103 % of control.
Regarding `CC([NH-])C(=O)O.O=C(O)CN(CC(=O)O)CC(=O)O.[Co+2]`, the T/C runs as follows: under setting [9], 104 % of control; under setting [10], 113 % of control; under setting [11], 104 % of control and 90 % of control.
For `Oc1ccc(/C=N/Nc2nnc(N/N=C/c3ccc(O)cc3O)c3ccccc23)c(O)c1`, the T/C is, setting by setting: (dose: 3.12 mg/kg/injection, schedule: Q01DX009 (ip), vehicle: saline) 106 % of control; (dose: 3.12 mg/kg/injection, schedule: Q01DX009 (ip), vehicle: suspension in saline) 116 % of control; (dose: 6.25 mg/kg/injection, schedule: Q01DX009 (ip), vehicle: saline) 112 % of control; (dose: 12.5 mg/kg/injection, schedule: Q01DX009 (ip), vehicle: saline) 117 % of control.

The record behind these values is PubChem BioAssay AID330 (DTP/NCI, 2004).
